We go through eight compounds from patent US20240209028A1, “CNP COMPOUNDS” (priority 2022, published 2024).

Starred links: 1 amine or outer side, 2 acyl side, 3 side chain; linkers in the order of their positions; H or OH if unused. Positions of bridges follow the written chain, without caps; N, C: chain ends. Residues, ends and D or L forms follow the SMILES beside them. *: point of attachment. C18 diacid = O=C(O)CCCCCCCCCCCCCCCCC(=O)*; γGlu = O=C(O)[C@H](CCC(=O)[*:2])N[*:1]; AEEA = NCCOCCOCC(=O)O

In the assay the target is T1, human natriuretic peptide receptor 2 (hNPR2) (Homo sapiens, UniProt P20594).
T1 construct: expressed in transfected cells; host or cells: HEK293 (ATCC CRL-1573), clone 35, co-transfected with pGloSensor-42F
T1 sequence (P20594 23-1047): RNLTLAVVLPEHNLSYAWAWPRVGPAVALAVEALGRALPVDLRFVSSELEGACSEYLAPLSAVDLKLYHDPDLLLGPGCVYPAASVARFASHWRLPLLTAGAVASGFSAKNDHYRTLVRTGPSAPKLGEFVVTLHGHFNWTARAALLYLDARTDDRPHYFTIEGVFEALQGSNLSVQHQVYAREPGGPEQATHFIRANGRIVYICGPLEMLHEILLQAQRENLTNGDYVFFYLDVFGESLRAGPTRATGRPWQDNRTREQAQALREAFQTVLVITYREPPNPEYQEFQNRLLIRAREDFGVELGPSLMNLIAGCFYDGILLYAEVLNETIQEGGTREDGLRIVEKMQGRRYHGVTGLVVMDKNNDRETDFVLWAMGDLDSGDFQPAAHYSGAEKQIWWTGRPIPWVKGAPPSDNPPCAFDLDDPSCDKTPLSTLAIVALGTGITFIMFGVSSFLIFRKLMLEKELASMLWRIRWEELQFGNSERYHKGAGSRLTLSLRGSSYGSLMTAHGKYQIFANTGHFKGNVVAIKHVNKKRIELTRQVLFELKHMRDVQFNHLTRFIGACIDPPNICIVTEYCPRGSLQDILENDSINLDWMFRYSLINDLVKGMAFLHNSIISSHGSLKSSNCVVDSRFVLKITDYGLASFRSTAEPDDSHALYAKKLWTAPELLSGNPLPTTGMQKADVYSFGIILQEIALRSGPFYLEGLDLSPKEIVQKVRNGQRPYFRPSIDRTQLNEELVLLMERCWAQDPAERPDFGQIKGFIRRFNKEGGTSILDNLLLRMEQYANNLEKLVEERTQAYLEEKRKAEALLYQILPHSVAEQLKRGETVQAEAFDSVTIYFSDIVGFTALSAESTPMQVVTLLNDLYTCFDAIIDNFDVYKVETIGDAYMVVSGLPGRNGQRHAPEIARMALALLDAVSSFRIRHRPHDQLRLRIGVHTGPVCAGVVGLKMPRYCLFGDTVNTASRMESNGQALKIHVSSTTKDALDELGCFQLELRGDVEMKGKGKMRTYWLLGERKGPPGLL
Description: In vitro hNPR2 activity assay (cGMP GloSensor reporter, HEK293). In kind it is cell-based. The following applies: potency relative to CNP22 (0065). The method, boiled down: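 Potency is the EC50 from a four-parameter logistic fit, also expressed relative to the in-plate CNP22 control (×100), with at least two replicates. Compounds (ten concentrations, […], HSA-free diluent with 1% OVA, 0.01% Tween20) were incubated 30 min at 37 °C on HEK293 cells co-expressing hNPR2 and a GloSensor cGMP luciferase. Luminescence detected with Bright-Glo.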

With `CC[C@H](C)[C@@H]1NC(=O)[C@H](CCCNC(=N)N)NC(=O)[C@H](CC(=O)O)NC(=O)[C@H](CC(C)C)NC(=O)[C@@H]2CCCN2C(=O)[C@H](CC(C)C)NC(=O)CNC(=O)[C@H](Cc2ccccc2)NC(=O)[C@@H](NC(=O)CNC(=O)[C@H](CO)NC(=O)[C@H](CO)NC(=O)[C@H](CC(C)C)NC(=O)CNC(=O)[C@H](CCC(=O)O)NC(=O)[C@H](CCCCN)NC(=O)[C@H](CCC(N)=O)NC(=O)[C@H](C)NC(=O)CNC(=O)[C@H](CCC(=O)O)NC(=O)COCCOCCNC(=O)COCCOCCNC(=O)CC[C@H](NC(=O)CCCCCCCCCCCCCCCCC(=O)O)C(=O)O)CSSC[C@@H](C(=O)O)NC(=O)CNC(=O)[C@H](CC(C)C)NC(=O)CNC(=O)[C@H](CO)NC(=O)[C@H](CC(C)C)NC(=O)[C@H](CO)NC(=O)CNC1=O` [compound 1288] ({C18 diacid-γGlu-AEEA-AEEA}-EGAQKEGLSSGCFGLPLDRIGSLSGLGC-OH; disulfide 12-28), the “hNPR2 0% HSA. [EC50% rel CNP]” value is 3.0%. Regarding `CC[C@H](C)[C@@H]1NC(=O)[C@H](CCCNC(=N)N)NC(=O)[C@H](CC(=O)O)NC(=O)[C@H](CC(C)C)NC(=O)[C@@H]2CCCN2C(=O)[C@H](CC(C)C)NC(=O)CNC(=O)[C@H](Cc2ccccc2)NC(=O)[C@@H](NC(=O)CNC(=O)[C@H](CO)NC(=O)[C@H](CO)NC(=O)[C@H](CC(C)C)NC(=O)CNC(=O)[C@H](CCC(=O)O)NC(=O)[C@H](CCCCN)NC(=O)[C@H](CCC(N)=O)NC(=O)[C@H](C)NC(=O)CNC(=O)[C@H](CCC(=O)O)NC(=O)[C@H](Cc2ccc(O)cc2)NC(=O)COCCOCCNC(=O)COCCOCCNC(=O)CC[C@H](NC(=O)CCCCCCCCCCCCCCCCC(=O)O)C(=O)O)CSSC[C@@H](C(=O)O)NC(=O)CNC(=O)[C@H](CC(C)C)NC(=O)CNC(=O)[C@H](CO)NC(=O)[C@H](CC(C)C)NC(=O)[C@H](CO)NC(=O)CNC1=O` [compound 1289] ({C18 diacid-γGlu-AEEA-AEEA}-YEGAQKEGLSSGCFGLPLDRIGSLSGLGC-OH; disulfide 13-29), the “hNPR2 0% HSA. [EC50% rel CNP]” value came out at 2.9%. For `CC[C@H](C)[C@@H]1NC(=O)[C@H](CCCNC(=N)N)NC(=O)[C@H](CC(=O)O)NC(=O)[C@H](CC(C)C)NC(=O)[C@@H]2CCCN2C(=O)[C@H](CC(C)C)NC(=O)CNC(=O)[C@H](Cc2ccccc2)NC(=O)[C@@H](NC(=O)CNC(=O)[C@H](CO)NC(=O)[C@H](CO)NC(=O)[C@H](CC(C)C)NC(=O)CNC(=O)[C@H](CCCCN)NC(=O)[C@H](CCCCN)NC(=O)[C@H](CCC(N)=O)NC(=O)[C@H](C)NC(=O)CNC(=O)[C@H](CCC(=O)O)NC(=O)[C@H](Cc2ccc(O)cc2)NC(=O)COCCOCCNC(=O)COCCOCCNC(=O)CC[C@H](NC(=O)CC[C@H](NC(=O)CCCCCCCCCCCCCCCCC(=O)O)C(=O)O)C(=O)O)CSSC[C@@H](C(=O)O)NC(=O)CNC(=O)[C@H](CC(C)C)NC(=O)CNC(=O)[C@H](CO)NC(=O)[C@H](CC(C)C)NC(=O)[C@H](CO)NC(=O)CNC1=O` [compound 1290] ({C18 diacid-γGlu-γGlu-AEEA-AEEA}-YEGAQKKGLSSGCFGLPLDRIGSLSGLGC-OH; disulfide 13-29) the value was 7.0%; for `CC[C@H](C)[C@@H]1NC(=O)[C@H](CCCNC(=N)N)NC(=O)[C@H](CC(=O)O)NC(=O)[C@H](CC(C)C)NC(=O)[C@@H]2CCCN2C(=O)[C@H](CC(C)C)NC(=O)CNC(=O)[C@H](Cc2ccccc2)NC(=O)[C@@H](NC(=O)CNC(=O)[C@H](CO)NC(=O)[C@H](CO)NC(=O)[C@H](CC(C)C)NC(=O)CNC(=O)[C@@H](NC(=O)[C@H](CCCCN)NC(=O)[C@H](CCC(N)=O)NC(=O)[C@H](C)NC(=O)CNC(=O)[C@H](Cc2c[nH]cn2)NC(=O)[C@H](Cc2ccc(O)cc2)NC(=O)COCCOCCNC(=O)COCCOCCNC(=O)CC[C@H](NC(=O)CCCCCCCCCCCCCCCCC(=O)O)C(=O)O)[C@@H](C)O)CSSC[C@@H](C(=O)O)NC(=O)CNC(=O)[C@H](CC(C)C)NC(=O)CNC(=O)[C@H](CO)NC(=O)[C@H](CC(C)C)NC(=O)[C@H](CO)NC(=O)CNC1=O` [compound 1302] ({C18 diacid-γGlu-AEEA-AEEA}-YHGAQKTGLSSGCFGLPLDRIGSLSGLGC-OH; disulfide 13-29), 26.5%. On to `CC[C@H](C)[C@@H]1NC(=O)[C@H](CCCNC(=N)N)NC(=O)[C@H](CC(=O)O)NC(=O)[C@H](CC(C)C)NC(=O)[C@@H]2CCCN2C(=O)[C@H](CC(C)C)NC(=O)CNC(=O)[C@H](Cc2ccccc2)NC(=O)[C@@H](NC(=O)CNC(=O)[C@H](CO)NC(=O)[C@H](CO)NC(=O)[C@H](CC(C)C)NC(=O)CNC(=O)[C@@H](NC(=O)[C@H](Cc2c[nH]cn2)NC(=O)[C@H](CCC(N)=O)NC(=O)[C@H](C)NC(=O)CNC(=O)[C@H](CCCCN)NC(=O)[C@H](Cc2ccc(O)cc2)NC(=O)COCCOCCNC(=O)COCCOCCNC(=O)CC[C@H](NC(=O)CCCCCCCCCCCCCCCCC(=O)O)C(=O)O)[C@@H](C)O)CSSC[C@@H](C(=O)O)NC(=O)CNC(=O)[C@H](CC(C)C)NC(=O)CNC(=O)[C@H](CO)NC(=O)[C@H](CC(C)C)NC(=O)[C@H](CO)NC(=O)CNC1=O` [compound 1305] ({C18 diacid-γGlu-AEEA-AEEA}-YKGAQHTGLSSGCFGLPLDRIGSLSGLGC-OH; disulfide 13-29), for which the “hNPR2 0% HSA. [EC50% rel CNP]” value is listed as 8.7%. The figure for `CC[C@H](C)[C@@H]1NC(=O)[C@H](CCCNC(=N)N)NC(=O)[C@H](CC(=O)O)NC(=O)[C@H](CC(C)C)NC(=O)[C@@H]2CCCN2C(=O)[C@H](CC(C)C)NC(=O)CNC(=O)[C@H](Cc2ccccc2)NC(=O)[C@@H](NC(=O)CNC(=O)[C@H](CCCCN)NC(=O)[C@H](CO)NC(=O)[C@H](CC(C)C)NC(=O)CNC(=O)[C@H](CCCCN)NC(=O)[C@H](CCCCN)NC(=O)[C@H](CCC(N)=O)NC(=O)[C@H](C)NC(=O)CNC(=O)[C@H](Cc2c[nH]cn2)NC(=O)[C@H](CCC(=O)O)NC(=O)COCCOCCNC(=O)COCCOCCNC(=O)CC[C@H](NC(=O)CCCCCCCCCCCCCCCCC(=O)O)C(=O)O)CSSC[C@@H](C(=O)O)NC(=O)CNC(=O)[C@H](CC(C)C)NC(=O)CNC(=O)[C@H](CO)NC(=O)[C@H](CC(C)C)NC(=O)[C@H](CO)NC(=O)CNC1=O` [compound 1309] ({C18 diacid-γGlu-AEEA-AEEA}-EHGAQKKGLSKGCFGLPLDRIGSLSGLGC-OH; disulfide 13-29) is 33.3%. For `CC[C@H](C)[C@@H]1NC(=O)[C@H](CCCNC(=N)N)NC(=O)[C@H](CC(=O)O)NC(=O)[C@H](CC(C)C)NC(=O)[C@@H]2CCCN2C(=O)[C@H](CC(C)C)NC(=O)CNC(=O)[C@H](Cc2ccccc2)NC(=O)[C@@H](NC(=O)CNC(=O)[C@H](CO)NC(=O)[C@H](CO)NC(=O)[C@@H](NC(=O)CNC(=O)[C@H](CCCCN)NC(=O)[C@H](CCCCN)NC(=O)[C@H](CCC(N)=O)NC(=O)[C@H](C)NC(=O)CNC(=O)[C@H](Cc2c[nH]cn2)NC(=O)[C@H](CCC(=O)O)NC(=O)COCCOCCNC(=O)COCCOCCNC(=O)CC[C@H](NC(=O)CCCCCCCCCCCCCCCCC(=O)O)C(=O)O)C(C)C)CSSC[C@@H](C(=O)O)NC(=O)CNC(=O)[C@H](CC(C)C)NC(=O)CNC(=O)[C@H](CO)NC(=O)[C@H](CC(C)C)NC(=O)[C@H](CO)NC(=O)CNC1=O` [compound 1311] ({C18 diacid-γGlu-AEEA-AEEA}-EHGAQKKGVSSGCFGLPLDRIGSLSGLGC-OH; disulfide 13-29; C-terminus assumed) the value was 12.7%. The figure for `CC[C@H](C)[C@@H]1NC(=O)[C@H](CCCNC(=N)N)NC(=O)[C@H](CC(=O)O)NC(=O)[C@H](CC(C)C)NC(=O)[C@@H]2CCCN2C(=O)[C@H](CC(C)C)NC(=O)CNC(=O)[C@H](Cc2ccccc2)NC(=O)[C@@H](NC(=O)CNC(=O)[C@H](CO)NC(=O)[C@H](CO)NC(=O)[C@@H](NC(=O)CNC(=O)[C@@H](NC(=O)[C@H](CCCCN)NC(=O)[C@H](CCC(N)=O)NC(=O)[C@H](C)NC(=O)CNC(=O)[C@H](Cc2c[nH]cn2)NC(=O)[C@H](CCC(=O)O)NC(=O)COCCOCCNC(=O)COCCOCCNC(=O)CC[C@H](NC(=O)CCCCCCCCCCCCCCCCC(=O)O)C(=O)O)[C@@H](C)O)C(C)C)CSSC[C@@H](C(=O)O)NC(=O)CNC(=O)[C@H](CC(C)C)NC(=O)CNC(=O)[C@H](CO)NC(=O)[C@H](CC(C)C)NC(=O)[C@H](CO)NC(=O)CNC1=O` [compound 1312] ({C18 diacid-γGlu-AEEA-AEEA}-EHGAQKTGVSSGCFGLPLDRIGSLSGLGC-OH; disulfide 13-29) is 9.0%.
